Here are results for 16 compounds from BindingDB's records for doi:10.1016/S0960-894X(01)80876-3 (1993).

Each structure is given as a SMILES string.

This test in a line: Ability to inhibit blood platelet aggregation of human platelet-rich plasma induced by TP-receptor agonist U 46619.
Usually IC50 stands for the midpoint of a concentration-inhibition curve. A lower IC50 goes with higher potency. As for `O=C(O)CCC/C=C1/C[C@H]2CC[C@H](C=NNC(=O)Nc3ccc(Cl)c(Cl)c3)[C@H]2C1`, the IC50 turned out to be 1800 nM.
`O=C(O)CC/C=C1\CC2CC(O)C([CH+][N-]NC(=O)Nc3ccc([N+](=O)[O-])cc3)C2C1` (stereo unspecified) displayed an IC50 of 520 nM.
In the case of `O=C(O)COC/C=C1\C[C@H]2C[C@@H](O)[C@H](C=NNC(=O)Nc3cccc(Cl)c3)[C@H]2C1` it was 1600 nM; in that of `O=C(O)CCC/C=C1/CC2CCC([CH+][N-]NC(=O)Nc3ccc([N+](=O)[O-])cc3)C2C1` (stereo unspecified), 580 nM.
In the case of `O=C(O)CC/C=C1\C[C@H]2C[C@@H](O)[C@H](C=NNC(=O)Nc3ccccc3)[C@H]2C1` it was 26000 nM; in that of `O=C(O)COC/C=C1\C[C@H]2C[C@@H](O)[C@H](C=NNC(=O)Nc3ccccc3)[C@H]2C1`, 6000 nM; in that of `O=C(O)CCC/C=C1\C[C@H]2CC[C@H](C=NNC(=O)Nc3ccccc3)[C@H]2C1`, 12000 nM.
To `O=C(O)CCC/C=C1\C[C@H]2CC[C@H](C=NNC(=O)Nc3cccc(Cl)c3)[C@H]2C1` belongs 6500 nM.
As for `O=C(O)CCC/C=C1\C[C@H]2CC[C@H](C=NNC(=O)Nc3ccc(Cl)c(Cl)c3)[C@H]2C1`, the IC50 stood at 9000 nM.
With `O=C(O)CCC/C=C1/C[C@H]2C[C@@H](O)[C@H](C=NNC(=O)Nc3ccccc3)[C@H]2C1`, the IC50 is 100 nM.
For `O=C(O)CCC/C=C1\C[C@H]2C[C@@H](O)[C@H](C=NNC(=O)Nc3cccc(Cl)c3)[C@H]2C1`, the IC50 was determined as 130 nM.
In the case of `O=C(O)CCC/C=C1/C[C@H]2CC[C@H](C=NNC(=O)Nc3ccccc3)[C@H]2C1` it was 2300 nM; in that of `O=C(O)CC/C=C1\C[C@H]2C[C@@H](O)[C@H](C=NNC(=O)Nc3cccc(Cl)c3)[C@H]2C1`, 5200 nM; in that of `O=C(O)COC/C=C1/C[C@H]2C[C@@H](O)[C@H](C=NNC(=O)Nc3ccccc3)[C@H]2C1`, 1400 nM.
For the compound `O=C(O)CCC/C=C1\C[C@H]2C[C@@H](O)[C@H](C=NNC(=O)Nc3ccc(Cl)c(Cl)c3)[C@H]2C1`, the IC50 turned out to be 200 nM.
In the case of `O=C(O)CCC/C=C1/CC2CC(O)C([CH+][N-]NC(=O)Nc3ccc([N+](=O)[O-])cc3)C2C1` (stereo unspecified) it was 50 nM.
